Patent publication US20140081017A1, “Histone Deacetylase Inhibitors for Enhancing Activity of Antifungal Agents” (METHYLGENE INC., priority 2012, published 2014)
Values after ≈ are worked out from the molar mass of the structure shown. Like-named read-outs stand apart in the source and are kept apart here.

Legend:
Candida glabrata = test: Minimal Inhibitory Concentration (MIC) assay, broth microdilution per CLSI; format: cell-based; settings: Nakaseomyces glabratus, read-out: Minimum Inhibitory Concentrations against Yeast Isolates, Candida glabrata;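 also: two read times 24 hr and 48 hr of incubation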
How it was run: (§1)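 Yeast isolates were grown overnight at 35° C on Sabouraud dextrose agar, adjusted to 0.5 McFarland in saline and diluted 1:100 in RPMI buffered with 0.165 M MOPS, pH 7.0. Compounds in DMSO were serially diluted 1:1. After 24-48 hr at 35° C, MIC was the lowest concentration inhibiting visible growth.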

Candida albicans = test: as above; format: cell-based; settings: Candida albicans, read-out: Minimum Inhibitory Concentrations against Yeast Isolates, Candida albicans;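 also: two read times 24 hr and 48 hr of incubation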
How it was run: as §1

Candida parapsilosis [1] = test: as above; format: cell-based; settings: Lodderomyces parapsilosis, read-out: Minimum Inhibitory Concentrations against Yeast Isolates, Candida parapsilosis
How it was run: as §1

Candida parapsilosis [2] = settings: 24 hr; range not explained; cited from earlier work
C. glabrata = test: Checkerboard FIC assay in combination with fluconazole (MIC alone and in combination, FICI); format: cell-based, Candida glabrata; settings: for FICI of combination resulting in fluconazole MIC of: 2 ug/mL / FICI of combination resulting in fluconazole MIC of: 4 ug/mL / FICI of combination resulting in fluconazole MIC of: 8 ug/mL: FICI calculated using a fluconazole MIC of 16 μg/mL; for FICI of combination resulting in fluconazole MIC of: 2 ug/mL (value in parenthesis) / FICI of combination resulting in fluconazole MIC of: 4 ug/mL (value in parenthesis) / FICI of combination resulting in fluconazole MIC of: 8 ug/mL (value in parenthesis): FICI using a fluconazole MIC of 128 μg/mL; for MIC: Nakaseomyces glabratus; for Concentration of Methylgene compound to synergize fluconazole MIC to 2 ug/mL / Concentration of Methylgene compound to synergize fluconazole MIC to 4 ug/mL / Concentration of Methylgene compound to synergize fluconazole MIC to 8 ug/mL: in combination with fluconazole; for Concentration of Methylgene compound to synergize fluconazole MIC to 2 ug/mL: fluconazole MIC lowered to 2 ug/mL; for Concentration of Methylgene compound to synergize fluconazole MIC to 4 ug/mL: fluconazole MIC lowered to 4 ug/mL; for Concentration of Methylgene compound to synergize fluconazole MIC to 8 ug/mL: fluconazole MIC lowered to 8 ug/mL; for Multiple of compound MIC to synergize fluconazole MIC to 2 ug/mL / Multiple of compound MIC to synergize fluconazole MIC to 4 ug/mL / Multiple of compound MIC to synergize fluconazole MIC to 8 ug/mL: concentration in combination as multiple of the compound's MIC alone; for Multiple of compound MIC to synergize fluconazole MIC to 2 ug/mL: fluconazole MIC 2 ug/mL; for Multiple of compound MIC to synergize fluconazole MIC to 4 ug/mL: fluconazole MIC 4 ug/mL; for Multiple of compound MIC to synergize fluconazole MIC to 8 ug/mL: fluconazole MIC 8 ug/mL
How it was run: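 C. glabrata was tested by CLSI broth microdilution checkerboard, crossing 2-fold dilutions of compound with 2-fold dilutions of fluconazole. The medium was RPMI with 0.165 M MOPS at pH 7.0, inoculated from a 0.5 McFarland suspension diluted 1:100, then incubated about 48 h at 35 °C. Single-agent MICs gave the FIC and FICI values.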

[3] = 24 hr reading (first value of cell 24 hr/48 hr)
[4] = 48 hr reading (second value of cell 24 hr/48 hr)
[5] = MIC of the example compound alone against C. glabrata in the checkerboard assay, approximately 48 hr, read-out: Methylgene MIC
[6] = test compound alone, C. glabrata, approx. 48 hr at 35° C., read-out: Compound MIC
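For Minimum Inhibitory Concentrations against Yeast Isolates, Candida parapsilosis in this document: two read times 24 hr and 48 hr of incubation.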

| MIC (Candida glabrata; [3]) | MIC (Candida glabrata; [4]) | MIC (Candida albicans; [3]) | MIC (Candida albicans; [4]) | MIC (Candida parapsilosis [1]; [3]) | MIC (Candida parapsilosis [1]; [4]) | FICI of combination resulting in fluconazole MIC of: 2 ug/mL (C. glabrata; C. glabrata) | FICI of combination resulting in fluconazole MIC of: 4 ug/mL (C. glabrata; C. glabrata) | FICI of combination resulting in fluconazole MIC of: 8 ug/mL (C. glabrata; C. glabrata) | FICI of combination resulting in fluconazole MIC of: 2 ug/mL (value in parenthesis) (C. glabrata; C. glabrata) | FICI of combination resulting in fluconazole MIC of: 4 ug/mL (value in parenthesis) (C. glabrata; C. glabrata) | FICI of combination resulting in fluconazole MIC of: 8 ug/mL (value in parenthesis) (C. glabrata; C. glabrata) | MIC (C. glabrata; [5]) | MIC (C. glabrata; [6]) | Concentration of Methylgene compound to synergize fluconazole MIC to 2 ug/mL (C. glabrata; C. glabrata) | Concentration of Methylgene compound to synergize fluconazole MIC to 4 ug/mL (C. glabrata; C. glabrata) | Concentration of Methylgene compound to synergize fluconazole MIC to 8 ug/mL (C. glabrata; C. glabrata) | Multiple of compound MIC to synergize fluconazole MIC to 2 ug/mL (C. glabrata) | Multiple of compound MIC to synergize fluconazole MIC to 4 ug/mL (C. glabrata) | Multiple of compound MIC to synergize fluconazole MIC to 8 ug/mL (C. glabrata) | Compound | also measured |
| --- | --- | --- | --- | --- | --- | --- | --- | --- | --- | --- | --- | --- | --- | --- | --- | --- | --- | --- | --- | --- | --- |
| 0.12 µg/mL (≈ 0.11 µM) | 0.12 µg/mL (≈ 0.11 µM) | 0.06 µg/mL (≈ 0.0549 µM) | 0.06 µg/mL (≈ 0.0549 µM) | 0.5 µg/mL (≈ 0.457 µM) | 0.5 µg/mL (≈ 0.457 µM) |  |  |  |  |  |  |  |  |  |  |  |  |  |  | CC[C@H](C)C[C@H](C)CCCCCCCCC(=O)N[C@H]1C[C@@H](O)[C@@H](NCCN)NC(=O)[C@@H]2[C@@H](O)CCN2C(=O)[C@H]([C@H](O)CCN)NC(=O)[C@H]([C@H](O)[C@@H](O)c2ccc(O)cc2)NC(=O)[C@@H]2C[C@@H](O)CN2C(=O)[C@H]([C@@H](C)O)NC1=O [Caspofungin, reference compound] | MIC range in parentheses below the comparator's MIC, Candida parapsilosis (Candida parapsilosis [2]): 0.25 to 1 µg/mL |
| 16 µg/mL (≈ 32.7 µM) | > 64 µg/mL | > 64 µg/mL | > 64 µg/mL | > 64 µg/mL | > 64 µg/mL | 0.313 | 0.250 | 0.313 | 0.266 | 0.156 | 0.125 | > 16 µg/mL | > 16 µg/mL | 8 µg/mL | 4 µg/mL | 2 µg/mL |  |  |  | CN1CCN(CCS(=O)(=O)Nc2cccc(CCCCc3ccc(CC(=O)NO)cc3)c2)CC1 [Example 54, N-hydroxy-2-(4-(4-(3-(2-(4-methylpiperazin-1-yl)ethylsulfonamido)phenyl)butyl)phenyl)acetamide] |  |
| 0.25 µg/mL (≈ 0.841 µM) | 0.5 µg/mL (≈ 1.68 µM) | 2 µg/mL (≈ 6.72 µM) | 4 µg/mL (≈ 13.4 µM) | 0.5 µg/mL (≈ 1.68 µM) | 1 µg/mL (≈ 3.36 µM) | 0.303 | 0.365 | 0.370 | 0.256 | 0.271 | 0.183 | 0.5 µg/mL | 0.5 µg/mL | 0.12 µg/mL | 0.12 µg/mL | 0.06 µg/mL | (¼x) | (¼x) | (⅛x) | CC(C(=O)NO)c1ccc(CCCCc2ccccc2)cc1 (centres unmarked) [Example 55, N-hydroxy-2-(4-(4-phenylbutyl)phenyl)propanamide] |  |
| 0.25 µg/mL (≈ 0.803 µM) | 0.5 µg/mL (≈ 1.61 µM) | > 2 µg/mL | > 2 µg/mL | > 2 µg/mL | > 2 µg/mL | 0.563 | 0.625 | 0.490 | 0.516 | 0.531 | 0.303 | 0.5 µg/mL | 0.5 µg/mL | 0.25 µg/mL | 0.25 µg/mL | 0.12 µg/mL | (½x) | (½x) | (¼x) | CC(C)(C(=O)NO)c1ccc(CCCCc2ccccc2)cc1 [Example 56, N-hydroxy-2-methyl-2-(4-(4-phenylbutyl)phenyl)propanamide] |  |
| 16 µg/mL (≈ 53.4 µM) | > 64 µg/mL | > 64 µg/mL | > 64 µg/mL | > 64 µg/mL | > 64 µg/mL | 0.563 | 0.625 | 0.500 | 0.516 | 0.531 | 0.313 | > 16 µg/mL | > 16 µg/mL | 16 µg/mL | 16 µg/mL | 8 µg/mL |  |  |  | O=C(Cc1ccc(CCC(O)Cc2ccccc2)cc1)NO (centres unmarked) [Example 57, N-hydroxy-2-(4-(3-hydroxy-4-phenylbutyl)phenyl)acetamide] |  |
| 8 µg/mL (≈ 25.5 µM) | 64 µg/mL (≈ 204 µM) | > 64 µg/mL | > 64 µg/mL | > 64 µg/mL | > 64 µg/mL | 0.188 | 0.250 | 0.375 | 0.141 | 0.156 | 0.188 | > 16 µg/mL | > 16 µg/mL | 4 µg/mL | 4 µg/mL | 4 µg/mL |  |  |  | CC(C(=O)NO)c1ccc(CCC(O)Cc2ccccc2)cc1 (centres unmarked) [Example 58, N-hydroxy-2-(4-(3-hydroxy-4-phenylbutyl)phenyl)propanamide] |  |
| 16 µg/mL (≈ 53.4 µM) | 64 µg/mL (≈ 214 µM) | > 64 µg/mL | > 64 µg/mL | > 64 µg/mL | > 64 µg/mL | 0.313 | 0.375 | 0.375 | 0.266 | 0.281 | 0.188 | > 16 µg/mL | > 16 µg/mL | 8 µg/mL | 8 µg/mL | 4 µg/mL |  |  |  | O=C(Cc1ccc(C(O)CCCc2ccccc2)cc1)NO (centres unmarked) [Example 59, N-hydroxy-2-(4-(1-hydroxy-4-phenylbutyl)phenyl)acetamide] |  |
| 2 µg/mL (≈ 6.64 µM) | 2 µg/mL (≈ 6.64 µM) | 4 µg/mL (≈ 13.3 µM) | 4 µg/mL (≈ 13.3 µM) | 4 µg/mL (≈ 13.3 µM) | 8 µg/mL (≈ 26.5 µM) | 0.563 | 0.625 | 0.500 | 0.516 | 0.531 | 0.313 | 2 µg/mL | 2 µg/mL | 1 µg/mL | 1 µg/mL | 0.5 µg/mL | (½x) | (½x) | (¼x) | O=C(Cc1ccc(CCC(F)Cc2ccccc2)cc1)NO (centres unmarked) [Example 60, 2-(4-(3-fluoro-4-phenylbutyl)phenyl)-N-hydroxyacetamide] |  |
| 2 µg/mL (≈ 6.64 µM) | 4 µg/mL (≈ 13.3 µM) | 4 µg/mL (≈ 13.3 µM) | 8 µg/mL (≈ 26.5 µM) | 8 µg/mL (≈ 26.5 µM) | 16 µg/mL (≈ 53.1 µM) | 0.313 | 0.375 | 0.375 | 0.266 | 0.281 | 0.188 | 4 µg/mL | 4 µg/mL | 1 µg/mL | 1 µg/mL | 0.5 µg/mL | (¼x) | (¼x) | (⅛x) | O=C(Cc1ccc(C(F)CCCc2ccccc2)cc1)NO (centres unmarked) [Example 61, 2-(4-(1-fluoro-4-phenylbutyl)phenyl)-N-hydroxyacetamide] |  |
